Laboratory results from the supplement of paper PMC11208160.

Test: recombinant barcode read abundance after kanamycin selection (control-corrected) (log10(CPM+1)); higher = more efficient recombination; sequences stand for … in AGTGCAGAGAAAATCGGCCAGTTTTCTCTGCCTGCAGTCCGCATGCCGT…AGATTTATGCAGCGGACTGCCTTTCTCCCAAAGTGATAAACCGGACAGTATCATGGACCGGTTTTCCCGGTAATCCGTATTTGCAAGGTTGGTTTCACT; site = the 11-nt target
Method: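 Pooled E. coli target-specificity screen for the IS621 bridge recombinase. Each library plasmid pairs an 11-nt target (CT core) with a bridge RNA whose target-binding loop (9-nt LTG + 4-nt RTG) is reprogrammed; the rest of the 177-nt WT IS621 bridge RNA scaffold is fixed. The plasmid is co-electroporated with a WT donor plasmid; recombinase is induced with 0.1 mM IPTG and recombinants are selected on kanamycin. Recombinant barcodes are sequenced, converted to CPM, averaged over two biological replicates and corrected by the unselected control CPM. Molecule = full bridge RNA written as DNA: LTG = specificity nt 1-9, RTG = reverse complement of specificity nt 8-11, in the WT scaffold.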
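Note: IS621 recombinase and bridge RNA in Escherichia coli cells.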

In order of falling “recombinant barcode read abundance (log10)” value:
1. ACGGGTCCTTGGGTTCTAACCTGTTGCAG (site ACGGGTCCTCT)  3.09
2. ACGGTCACTTGGGTTCTAACCTGTTGCCT (site ACGGTCACTAG)  2.95
3. ACTGAGTCTTGGGTTCTAACCTGTTGCAT (site ACTGAGTCTAT)  2.69
4. ACTGGTCCTTGGGTTCTAACCTGTTGCAG (site ACTGGTCCTCT)  2.59
5. ACGGGTTCTTGGGTTCTAACCTGTTGCCT (site ACGGGTTCTAG)  2.46
6. ACGGTGACTTGGGTTCTAACCTGTTGCCT (site ACGGTGACTAG)  2.24
7. ACTGGACCTTGGGTTCTAACCTGTTGCTT (site ACTGGACCTAA)  2.23
8. ACTCGACCTTGGGTTCTAACCTGTTGCCT (site ACTCGACCTAG)  1.78
9. ACGGGATCTTGGGTTCTAACCTGTTGCCT (site ACGGGATCTAG)  1.57
10. ACTTAGCCTTGGGTTCTAACCTGTTGCAT (site ACTTAGCCTAG)  1.48
11. ACTTAGCCTTGGGTTCTAACCTGTTGCAT (site ACTTAGCCTAT)  1.27
12. ACTGAGTCTTGGGTTCTAACCTGTTGCTT (site ACTGAGTCTAA)  1.22
13. ACTCCGTCTTGGGTTCTAACCTGTTGCTA (site ACTCCGTCTTA)  1.11
14. ACGGTCACTTGGGTTCTAACCTGTTGCCT (site ATGGTCACTAG)  0.869
15. ACGTAGACTTGGGTTCTAACCTGTTGCAG (site ACGTAGACTCT)  0.802
16. ACTGGGGCTTGGGTTCTAACCTGTTGCCA (site ACTGGGGCTTG)  0.782
17. ACTATGACTTGGGTTCTAACCTGTTGCTT (site ACTATGACTAA)  0.75
18. ACTGGACCTTGGGTTCTAACCTGTTGCTT (site GCTGGACCTAG)  0.616
19. ACTCAGGCTTGGGTTCTAACCTGTTGCCG (site ACTCAGGCTCG)  0.541
20. ACGTTACCTTGGGTTCTAACCTGTTGCCT (site ACGTTACCTAG)  0.501
21. ACTACTCCTTGGGTTCTAACCTGTTGCAG (site ACTACTCCTCT)  0.461
22. ACGCTGGCTTGGGTTCTAACCTGTTGCCT (site ACACTGGCTAG)  0.386
23. ACGCTGGCTTGGGTTCTAACCTGTTGCCT (site ACGCTGGCTAG)  0.381
24. ACGCTAGCTTGGGTTCTAACCTGTTGCCT (site ACGCTAGCTAG)  0.357
25. ACTAGCTCTTGGGTTCTAACCTGTTGCCT (site ACTAGCTCTAG)  0.356
26. ACGCGTCCTTGGGTTCTAACCTGTTGCCG (site TCGCGTCCTCG)  0.355
27. ACGCGAGCTTGGGTTCTAACCTGTTGCCG (site ACGCGAGCTCC)  0.345
28. ACGGTCACTTGGGTTCTAACCTGTTGCCT (site AAGGTCACTAG)  0.331
29. ACGTTACCTTGGGTTCTAACCTGTTGCCT (site ACGATACCTAG)  0.331
30. ACGTCCACTTGGGTTCTAACCTGTTGCCT (site CCGTCGACTAG)  0.317
31. ACGTTGCCTTGGGTTCTAACCTGTTGCCT (site ACGTTGCCTAG)  0.316
32. ACGGTGACTTGGGTTCTAACCTGTTGCCT (site CCGGTGACTAG)  0.298
33. ACGCGAGCTTGGGTTCTAACCTGTTGCCG (site ACGCGAGCTCG)  0.288
34. ACTAGAGCTTGGGTTCTAACCTGTTGCCT (site ACCAGAGCTAG)  0.268
35. ACGGTCACTTGGGTTCTAACCTGTTGCCT (site AGGGTCACTAG)  0.264
36. ACGCGTCCTTGGGTTCTAACCTGTTGCCG (site ACGCGTCCTCG)  0.263
37. ACGGGATCTTGGGTTCTAACCTGTTGCCT (site CCGGGATCTAG)  0.24
38. ACGCTAGCTTGGGTTCTAACCTGTTGCCT (site GCGCTAGCTAG)  0.226
39. ACGCGAGCTTGGGTTCTAACCTGTTGCCG (site ACGCGAGCTCT)  0.215
40. ACGCGAGCTTGGGTTCTAACCTGTTGCCG (site ACGCGAGCTCA)  0.209
41. ACTAGAGCTTGGGTTCTAACCTGTTGCCT (site ACTAGAGCTAG)  0.198
42. ACTAGAGCTTGGGTTCTAACCTGTTGCCT (site ACGAGAGCTAG)  0.197
43. ACTCGACCTTGGGTTCTAACCTGTTGCCT (site ACTAGACCTAG)  0.197
44. ACGTTGCCTTGGGTTCTAACCTGTTGCCT (site ACATTGCCTAG)  0.188
45. ACGCGAGCTTGGGTTCTAACCTGTTGCTG (site ACGCGAGCTCT)  0.187
46. ACTACTCCTTGGGTTCTAACCTGTTGCAG (site ACTGGTCCTCT)  0.183
47. ACGTCCACTTGGGTTCTAACCTGTTGCCA (site ACGTCCACTTG)  0.148
48. ACTATGTCTTGGGTTCTAACCTGTTGCCA (site ACTATGTCTTG)  0.147
49. ACGTAGACTTGGGTTCTAACCTGTTGCAG (site ACAGAGACTCT)  0.145
50. ACGCGAGCTTGGGTTCTAACCTGTTGCTG (site ACGCGAGCTCG)  0.14
51. ACGCTAGCTTGGGTTCTAACCTGTTGCCT (site CCGCTAGCTAG)  0.138
52. ACTCAGGCTTGGGTTCTAACCTGTTGCCG (site ACAGAGGCTCG)  0.138
53. ACGGGATCTTGGGTTCTAACCTGTTGCCT (site GCGGGATCTAG)  0.129
54. ACTAGAGCTTGGGTTCTAACCTGTTGCCT (site ACAAGAGCTAG)  0.122
55. ACTTCGACTTGGGTTCTAACCTGTTGCCT (site ACTTCGACTAG)  0.116
56. ACTGAGTCTTGGGTTCTAACCTGTTGCAT (site ACTGAGTCTTT)  0.109
57. ACGGGTTCTTGGGTTCTAACCTGTTGCCT (site TCCGGTTCTAG)  0.107
58. ACGTCGTCTTGGGTTCTAACCTGTTGCCT (site AGGTCGTCTAG)  0.102
59. ACGGGATCTTGGGTTCTAACCTGTTGCCT (site TCGGGATCTAG)  0.0975
60. ACTGGTCCTTGGGTTCTAACCTGTTGCAG (site ACTACTCCTCT)  0.0961
61. ACGCTGGCTTGGGTTCTAACCTGTTGCCT (site ACTCTGGCTAG)  0.0925
62. ACTATGACTTGGGTTCTAACCTGTTGCTT (site GACTATCCTCG)  0.0905
63. ACTGAGTCTTGGGTTCTAACCTGTTGCTT (site ACTGGGTCTAA)  0.0903
64. ACGCGAGCTTGGGTTCTAACCTGTTGCTG (site ACGCGAGCTCA)  0.0871
65. ACGTCGTCTTGGGTTCTAACCTGTTGCCT (site ATGTCGTCTAG)  0.0865
66. ACTGGGGCTTGGGTTCTAACCTGTTGCCA (site TCTGGGGCTAG)  0.0799
67. ACGTCGTCTTGGGTTCTAACCTGTTGCCT (site ACGTCGTCTAG)  0.0697
68. ACGGTGACTTGGGTTCTAACCTGTTGCCT (site TCGGTGACTAG)  0.0684
69. ACGGGTCCTTGGGTTCTAACCTGTTGCAG (site GGCAAGGCTAG)  0.0641
70. ACGCTGGCTTGGGTTCTAACCTGTTGCCT (site ACCCTGGCTAG)  0.0594
71. ACGTTGCCTTGGGTTCTAACCTGTTGCCT (site ACCTTGCCTAG)  0.0523
72. ACGCTAGCTTGGGTTCTAACCTGTTGCCT (site TCGCTAGCTAG)  0.0462
73. ACTCCGTCTTGGGTTCTAACCTGTTGCTA (site GCTCCGTCTAA)  0.0432
74. ACTTCGACTTGGGTTCTAACCTGTTGCCT (site AATTCGACTAG)  0.0426
75. ACGGTGACTTGGGTTCTAACCTGTTGCCT (site GCGGTGACTAG)  0.0376
76. ACGTCCACTTGGGTTCTAACCTGTTGCCT (site ACGTCCACTAG)  0.0313
77. ACGTTGCCTTGGGTTCTAACCTGTTGCCT (site ACTTTGCCTAG)  0.0271
78. ACGTCGTCTTGGGTTCTAACCTGTTGCCT (site AAGTCGTCTAG)  0.0262
79. ACGTCCACTTGGGTTCTAACCTGTTGCCA (site GGAAGGTCTAT)  0.025
80. ACTAGCTCTTGGGTTCTAACCTGTTGCCT (site ACTTGCTCTAA)  0.0142
81. ACTATGTCTTGGGTTCTAACCTGTTGCCA (site CCTATGTCTTA)  0.00838
82. ACGCGAGCTTGGGTTCTAACCTGTTGCTG (site ACGCGAGCTCC)  0
